For orientation: inhibition means the percentage by which the read-out fell short of the control.

In assay [1] the target is T1, SHP-2 PTP domain GST fusion protein (Homo sapiens, UniProt Q06124).
T1 sequence (Q06124 247-517 limits assumed): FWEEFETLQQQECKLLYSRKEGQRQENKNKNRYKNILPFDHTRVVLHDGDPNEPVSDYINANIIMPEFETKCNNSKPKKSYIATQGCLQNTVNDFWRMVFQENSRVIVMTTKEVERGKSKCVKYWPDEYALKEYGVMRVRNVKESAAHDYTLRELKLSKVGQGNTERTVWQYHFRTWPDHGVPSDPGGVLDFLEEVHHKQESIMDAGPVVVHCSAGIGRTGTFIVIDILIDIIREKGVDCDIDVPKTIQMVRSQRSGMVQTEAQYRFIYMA
The assay can be described thus: in vitro protein tyrosine phosphatase assay, SHP-2 (Malachite Green). Particulars: compound at 100 μM; read-out: inhibition of SHP-2 enzymatic activity. It is filed as biochemical. On the set-up: SHP-2 PTP domain GST fusion protein purified in house was used as the enzyme; made in house. From the text: Candidate compounds were screened using the in vitro protein tyrosine phosphatase (PTP) assay kit (Sigma, St. Lois, Mo.). SHP-2 PTP domain GST fusion protein purified in house was used as the enzyme and a phospho-peptide corresponding to the surrounding sequence of pTyr^1146 in the insulin receptor (Thr-Arg-Asp-Ile-Tyr[PO3H2]-Glu-Thr-Asp-Tyr-Tyr) were used as the substrate. The assay determines free phosphate generated by dephosphorylation of the PTP substrate using the Malachite Green reagent. Briefly, 0.5 μg of GST-SHP-2 PTP was incubated in 40 μL assay buffer (25 mM Tris-HCl, PH7.4, 50 mM NaCl, 5 mM DTT, and 2.5 mM EDTA) with test compounds at various concentrations or DMSO at room temperature for 30 min. The PTP substrate was then added to a final concentration of 0.2 mM. The system was incubated at 30° C. for 30 min. Finally, 50 μl of Malachite Green solution was added and OD620 was measured after 5 min. In the phosphatase assays for SHP-1, CD45, TC-PTP, PTP-MEG2 (PTPN9), and LAR (PTPRF), procedures were similar, with the exception that GST-SHP-1, GST-CD45 cytoplasmic domain, GST-TC-PTP, GST-PTP-MEG2 PTP domain, and GST-LAR PTP domain purchased from Biomol International, L.P. (Plymouth Meeting, Pa.) were used instead as the enzymes.
Candidate compounds identified by CADD were screened by the in vitro tyrosine phosphatase assay as described in the Experimental Section. The GST-SHP-2 PTP domain fusion protein was incubated with the compounds at room temperature for 30 min before the phospho-peptide substrate was added to the assay systems, allowing compounds to bind to target sites in SHP-2. Each test compound was dissolved in DMSO. Initial concentration of the test compounds was 100 μM. In the experimental assay, DMSO was included as the negative control and sodium orthovanadate (100 μM), a general non-specific tyrosine phosphatase inhibitor, was used as the positive control. From the 165 commercially available compounds tested, we identified 9 compounds that inhibit SHP-2 catalytic activity with various efficiencies (FIG. 3A). […] The inhibitory effects of the compounds were dose-dependent.

The target of assay [2] is T1, SHP-2 PTP domain GST fusion protein. Put plainly: fluorescence titration (quenching of SHP-2 fluorescence). It is filed as binding. Details: Purified SHP-2 PTP domain GST-fusion protein was diluted into 20 mM Tris-HCl; made in house. The settings on record: SHP-2 protein 3 μM, excitation 295 nm. On the procedure: For all experiments, Purified SHP-2 PTP domain GST-fusion protein was diluted into 20 mM Tris-HCl, pH 7.5. Fluorescence spectra were recorded with a Luminescence Spectrometer LS50 (Perkin-Elmer, Boston, Mass.). Titrations were performed by increasing the test compound concentration while maintaining the SHP-2 protein concentration at 3 μM. Contributions from background fluorescence of the inhibitors were accounted for by subtracting the fluorescence of the inhibitors alone from the of the protein-inhibitor solution. The excitation wavelength was 295 nm and fluorescence was monitored from 360 to 500 nm. All reported fluorescence intensities are relative values and are not corrected for wavelength variations in detector response.
To validate that the active compounds identified were binding directly to the SHP-2 protein, we determined whether the active compounds directly interacted with the SHP-2 PTP domain using fluorescence quenching and taking advantage of the four tryptophans in the PTP domain, with Trp248 located 15 Å from the putative pY+5 pocket and Trp423 located 8 Å from the phosphatase active site. […] Therefore, their binding to SHP-2 protein could not be determined using this measurement. Thus, the fluorescence quenching experiments indicate that at least four active compounds identified do directly bind to SHP-2, thereby leading to their biological activities.

For the compound `O=C(CCCn1c(=O)c2cccn2c2cccnc21)NCc1ccccc1F` [#212], the inhibition at 100 µM in assay [1] was determined as 45%.
With `CNC(=S)NNC(=O)c1csc(-c2cccs2)n1` [#226], in assay [1], the inhibition at 100 µM turned out to be 40%.
Turning to `CCc1ccc(OCC(=O)Nc2ccc(S(N)(=O)=O)cc2)cc1` [#270], the “quenching of SHP-2 fluorescence” value in assay [2] was “did not show significant quenching”.
On the same count and under the same terms, as for `CNC(=S)NNC(=O)CSCCS(=O)(=O)c1ccccc1` [#234], the entry is “did not show significant quenching”.
Still for that read-out and setting: as for `CSc1ccc(C2C(C#N)=C(N)Oc3[nH]nc(-c4ccccc4Cl)c32)cc1` (centres unmarked) [#284], the entry is “strong quenching”.

Source of the values: patent US8673913B2, “SHP-2 phosphatase inhibitor” (Case Western Reserve University, priority 2009, dated 2014).
